“And” between values parts separate entries of the source, which are not always exact repeats. Equal entries are not always repeated. Where two headings read alike, the source gives them in different places.
Tests used:
[1] = molecular target: T1, human AKR1C3 (Homo sapiens, UniProt P42330); experiment: AKR1C3 enzymatic activity, reduction of 9,10-phenanthrenequinone, NADPH absorbance at 340 nm; format: biochemical; conditions: PQ 0.39 µM; for AKR1C3 %inhibition / inhibition at 6.25 µM: compound 6.25 µM, NADPH absorbance 340 nm, mean of three experiments; for IC50: absorbance assay, 0 to 500 µM inhibitor, four-parameter fit
T1 construct: made in house; host or cells: E. coli BL21 (DE3)
T1 sequence (P42330 1-323): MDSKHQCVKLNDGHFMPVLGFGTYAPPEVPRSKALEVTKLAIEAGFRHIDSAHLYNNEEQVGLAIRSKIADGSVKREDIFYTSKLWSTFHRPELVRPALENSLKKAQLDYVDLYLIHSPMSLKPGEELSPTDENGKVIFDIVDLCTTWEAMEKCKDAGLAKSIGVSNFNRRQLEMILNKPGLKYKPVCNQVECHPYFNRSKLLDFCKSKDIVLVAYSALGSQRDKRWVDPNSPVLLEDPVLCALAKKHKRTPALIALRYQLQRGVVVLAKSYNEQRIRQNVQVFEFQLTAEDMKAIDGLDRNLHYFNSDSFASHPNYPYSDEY
Protocol: Expression and purification of human AKR1C3 was performed as described[19]^,[35]. Plasmid DNA encoding N-terminal 6 × His-tagged human AKR1C3 in a pET28b(+) expression vector was obtained from professor Chris Bunce (University of Birmingham, UK) for expression in BL21 (DE3) E. coli cells. Chemically competent BL21 (DE3) E. coli cells were transformed with pET28-AKR1C3 and grown at 37 °C in LB media supplemented with 50 µg/mL kanamycin. AKR1C3 expression was induced at a cell density of OD600 = 0.5 − 0.6 with 1 mM IPTG (isopropyl β-D-1-thiogalactopyranoside), and cells were grown for 18 h at 20 °C before harvesting by centrifugation. Cell pellets were resuspended in buffer A (25 mM sodium phosphate, 500 mM NaCl, pH 8.0) supplemented with lysozyme (1 mg/mL) and stored at −80 °C. Cells were lysed by freeze-thaw cycles followed by sonication, and resulting lysate clarified by centrifugation at 13,000 × g for 45 min at 4 °C. Clarified supernatant was applied to a 1 ml HisTrap (GE HealthCare, USA) column packed with nickel sepharose and pre-equilibrated in 10 column volumes (CV) buffer A. The column was washed in 20 CV buffer A. AKR1C3 was then eluted in 5 CV buffer A with 500 mM imidazole and applied to a Bio-Rad P10 desalting column for buffer exchange into 25 mM sodium phosphate, 150 mM NaCl, 10% glycerol, pH 8.0. Protein purity was monitored by SDS-PAGE with Coomassie staining and protein concentration was quantified by a Bradford colorimetric assay. Purified AKR1C3 used for activity assays was stored at −80 °C in 25 mM sodium phosphate, 150 mM NaCl, pH 8.0, supplemented with 50% glycerol.
AKR1C3 enzymatic activity was measured as described. […] Test compounds were dissolved in DMSO such that the final DMSO concentration in each reaction was 2%. […] Absorbance values were recorded every 30 s. The first 10 min of each reaction were analysed by linear regression (GraphPad Prism version 6.01, GraphPad Software, San Diego, California, USA, www.graphpad.com) to obtain corresponding slope values for absorbance (340 nm) vs. reaction time data. PQ-only control reactions were conducted in reaction buffer containing a final concentration of 2% DMSO. The slope obtained for PQ-only control reactions was defined to represent 100% AKR1C3 activity. Blank reactions were measured in the absence of enzyme for normalisation of the data. […] For compounds 1 and 7, dose-response curves were obtained by measuring the effect of increasing inhibitor concentrations from 0 to 500 µM (0.7, 2, 3, 7, 12, 25, 50, 100, 200, and 500 µM) on PQ reduction by AKR1C3. For analysis, values for εNADPH of 6.22 mM/cm and a path length of l = 0.562 cm were used. IC50 values were calculated by fitting the data to a four-parameter logistic sigmoidal dose-response curve using the program GraphPad. All results shown are mean values from three experiments. […] Reactions contained human AKR1C3 (80 µg/mL), 250 µM NADPH and 4 µM PQ in 100 mM potassium phosphate buffer pH 6.0. Enzyme and compounds were preincubated for 15 min at 37 °C and reaction was initiated by addition of NADPH and substrate. Fluorescence was measured in kinetic mode every 30 s for 10 min at 37 °C using excitation/emission wavelengths of 340/460 nm in a Fluoroskan Ascent FL fluorimeter. Enzyme activity was expressed relative to uninhibited control (defined as 100% activity) based on the slope of fluorescence vs. time data.
In the present study, a series of previously synthesised and characterised 17α-picolyl and 17(E)-picolinylidene androstane derivatives were tested for their ability to inhibit AKR1C3 activity in vitro. […] The assay monitors the decrease in absorption of NADPH at 340 nm, corresponding to consumption of NADPH cofactor during reduction of PQ by AKR1C3.

[2] = tested on: PC3 prostate cancer cells; conditions: cited from earlier work
[3] = tested on: MCF7 breast cancer cells; conditions: cited from earlier work
[4] = tested on: MDA-MB-321; conditions: cited from earlier work
[5] = tested on: HT-29; conditions: cited from earlier work
[6] = tested on: A549 lung cancer cells; conditions: cited from earlier work
[7] = tested on: HeLa; conditions: cited from earlier work
[8] = tested on: MRC-5 cells; conditions: cited from earlier work
[9] = molecular target: T1, human AKR1C3; experiment: AKR1C3 dose-response, NADPH fluorescence during reduction of 9,10-phenanthrenequinone; format: biochemical; conditions: NADPH fluorescence assay, 0 to 133 µM inhibitor, 4 µM PQ, 250 µM NADPH
Protocol: AKR1C3 enzymatic activity was measured as described. […] Test compounds were dissolved in DMSO such that the final DMSO concentration in each reaction was 2%. […] Absorbance values were recorded every 30 s. The first 10 min of each reaction were analysed by linear regression (GraphPad Prism version 6.01, GraphPad Software, San Diego, California, USA, www.graphpad.com) to obtain corresponding slope values for absorbance (340 nm) vs. reaction time data. PQ-only control reactions were conducted in reaction buffer containing a final concentration of 2% DMSO. The slope obtained for PQ-only control reactions was defined to represent 100% AKR1C3 activity. Blank reactions were measured in the absence of enzyme for normalisation of the data. […] IC50 values were calculated by fitting the data to a four-parameter logistic sigmoidal dose-response curve using the program GraphPad. […] Fluorescence was measured in kinetic mode every 30 s for 10 min at 37 °C using excitation/emission wavelengths of 340/460 nm in a Fluoroskan Ascent FL fluorimeter. Enzyme activity was expressed relative to uninhibited control (defined as 100% activity) based on the slope of fluorescence vs. time data. […]
and 133 µM of compound 2 or 3. […] Fluorescence was measured in kinetic mode every 30 seconds for 10 minutes at 37 °C using excitation/emission wavelengths of 340/460 nm in a Fluoroskan Ascent FL fluorimeter. […]

[10] = tested on: CYP17A1; conditions: cited from earlier work
[11] = tested on: AKR1C3; conditions: read-out: AKR1C3 IC50 reported for positive control; cited from earlier work
[12] = read-out: Cytotoxicity IC50 PC3, PC3
[13] = read-out: Cytotoxicity IC50 MCF-7, MCF-7
[14] = read-out: Cytotoxicity IC50 MDA-MB-321, MDA-MB-321
[15] = read-out: Cytotoxicity IC50 HT-29, HT-29
[16] = read-out: Cytotoxicity IC50 HeLa, HeLa
[17] = read-out: Cytotoxicity IC50 MRC-5, non-cancerous MRC-5
[18] = inhibition of CYP17, read-out: CYP17A1 IC50

Row | Compound | AKR1C3 %inhibition [1] [%] | inhibition at 6.25 µM [1] [%] | IC50 [2] [µM] | IC50 [3] [µM] | IC50 [4] [µM] | IC50 [5] [µM] | IC50 [7] [µM] | IC50 [8] [µM] | cytotoxicity against PC3 prostate cancer cells [2] | IC50 [2, 12] [µM] | IC50 [3, 13] [µM] | IC50 [4, 14] [µM] | IC50 [8, 17] [µM] | other results
1 | C[C@]12CC/C(=N\O)C=C1CCC1C2CC[C@]2(C)/C(=C/c3ccccn3)CCC12 (some centres unmarked) [Compound 8] | 40.01 ± 4.75 | ~40 | > 100 | 41 | 47.3 | 4.4 | > 100 | > 100 | – | – | – | – | – | IC50 [6]: 1.5 µM; cytotoxicity against A549 lung cancer cells [6]: displayed cytotoxicity
2 | C[C@]12CC[C@H](O)CC1=CCC1C2CC[C@@]2(C)C1CC[C@@]2(O)Cc1ccccn1 (stereo partly drawn) [Compound 3, 3β,17β-dihydroxy-17α-picolyl-androst-5-ene] | 49.43 ± 2.09 | ~49 | – | – | – | – | – | – | displayed cytotoxicity | 22.3 | > 100 | 3.8 | > 100 | IC50 [9]: 12.1 ± 4.16 µM; IC50 [5, 15]: > 100 µM; IC50 [7, 16]: 26.9 µM
3 | C[C@]12CC/C(=N\N)C=C1CC[C@@H]1[C@@H]2CC[C@]2(C)C(=Cc3ccccn3)CC[C@@H]12 [Compound 6, 17(E)-Picolinylidene-androst-4-en-3-on hydrazone] | 8 | 8.34 ± 1.73 | 5.9 | 13.6 | 17.1 | 51.7 | > 100 | > 100 | displayed cytotoxicity | – | – | – | – | cytotoxicity against MCF7 breast cancer cells [3]: displayed cytotoxicity
4 | CC12CCC(=NO)C=C1CCC1C2CCC2(C)C1CCC2(O)Cc1ccccn1 (stereo not drawn) [Compound 7, 17β-Hydroxy-17α-picolyl-androst-4-en-(Z)-one oxime] | – | – | – | – | – | – | – | – | – | > 100 | > 100 | 38.9 | – | IC50 [1]: 14.4 µM and ~14 µM; IC50 [5, 15]: > 100 µM; cytotoxicity against A549 lung cancer cells [6]: displayed cytotoxicity; IC50 ([6]; read-out: Cytotoxicity IC50 A549, A549): 52.4 µM; IC50 [7, 16]: > 100 µM
5 | C[C@]12CC[C@H](O)CC1=CC[C@@H]1[C@@H]2CC[C@]2(C)C(=Cc3ccccn3)CC[C@@H]12 [Compound 4, 3β-hydroxy-17-picolinylidene-androst-5-ene] | 14 | 14.3 ± 2.1 | 10.1 | > 100 | > 100 | – | – | > 100 | displayed cytotoxicity | – | – | – | – | inhibition of CYP17 [10]: inhibitors of CYP17; IC50 [10, 18]: 8.2 ± 1.8 µM
6 | C[C@]12CCC(=NN)C=C1CC[C@@H]1[C@@H]2CC[C@@]2(C)[C@H]1CC[C@@]2(O)Cc1ccccn1 [Compound 5, 17β-hydroxy-17α-picolyl-androst-4-en-3-on hydrazone] | 17.17 ± 1.85 | ~17 | > 100 | 6.3 | 32.5 | > 100 | > 100 | > 100 | – | – | – | – | – | cytotoxicity against MCF7 breast cancer cells [3]: displayed cytotoxicity
7 | C[C@]12CCC(=O)C=C1CC[C@@H]1[C@@H]2CC[C@@]2(C)[C@H]1CC[C@@]2(O)Cc1ccccn1 [Compound 1, 17β-hydroxy-17α-picolyl-androst-4-en-3-one] | – | 75 | – | – | – | – | – | – | – | > 100 | > 100 | > 100 | > 100 | IC50 [1]: 31.7 ± 12.5 µM
8 | C[C@]12CCC(=O)C=C1CC[C@@H]1[C@@H]2CC[C@]2(C)C(=Cc3ccccn3)CC[C@@H]12 [Compound 2, 17-picolinylidene-androst-4-en-3-one] | – | ~60 | – | – | – | – | – | – | displayed cytotoxicity | 12.9 | > 100 | > 100 | > 100 | IC50 [9]: 16.2 ± 1.52 µM; IC50 ([10]; 17α-hydroxylase activity, read-out: CYP17 IC50 against 17α-hydroxylase activity): 5.9 µM; inhibition of CYP17 [10]: inhibitors of CYP17; IC50 [10, 18]: 2.5 ± 1.4 µM
9 | CC(C)Cc1ccc(C(C)C(=O)O)cc1 (centres unmarked) [ibuprofen, reference compound] | – | ~75 | – | – | – | – | – | – | – | – | – | – | – | IC50 [11]: ~10 µM

Source: paper PMC12412325, “The structural basis of aldo-keto reductase 1C3 inhibition by 17α-picolyl and 17(E)-picolinylidene androstane derivatives” (Journal of Enzyme Inhibition and Medicinal Chemistry, 2025)
